Drawing on patent US12435061B2 (priority 2020, dated 2025), this text covers IC50 for 32 molecules.

The target of this assay is hTRPV3 (Homo sapiens (Human), UniProt Q8NET8). In words: Whole-cell patch clamp, hTRPV3 Phase 1 / Phase 2 currents. The assay is classed as cell-based. The conditions noted are these: for pIC50: inward, whole-cell patch clamp. The gist of the method: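 Currents are activated by 20 μM 2-APB or by perfusate at 28 °C or warmer, in Ringer's solution, and quantified at ±80 mV.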
Chain of hTRPV3 (Q8NET8 whole entry): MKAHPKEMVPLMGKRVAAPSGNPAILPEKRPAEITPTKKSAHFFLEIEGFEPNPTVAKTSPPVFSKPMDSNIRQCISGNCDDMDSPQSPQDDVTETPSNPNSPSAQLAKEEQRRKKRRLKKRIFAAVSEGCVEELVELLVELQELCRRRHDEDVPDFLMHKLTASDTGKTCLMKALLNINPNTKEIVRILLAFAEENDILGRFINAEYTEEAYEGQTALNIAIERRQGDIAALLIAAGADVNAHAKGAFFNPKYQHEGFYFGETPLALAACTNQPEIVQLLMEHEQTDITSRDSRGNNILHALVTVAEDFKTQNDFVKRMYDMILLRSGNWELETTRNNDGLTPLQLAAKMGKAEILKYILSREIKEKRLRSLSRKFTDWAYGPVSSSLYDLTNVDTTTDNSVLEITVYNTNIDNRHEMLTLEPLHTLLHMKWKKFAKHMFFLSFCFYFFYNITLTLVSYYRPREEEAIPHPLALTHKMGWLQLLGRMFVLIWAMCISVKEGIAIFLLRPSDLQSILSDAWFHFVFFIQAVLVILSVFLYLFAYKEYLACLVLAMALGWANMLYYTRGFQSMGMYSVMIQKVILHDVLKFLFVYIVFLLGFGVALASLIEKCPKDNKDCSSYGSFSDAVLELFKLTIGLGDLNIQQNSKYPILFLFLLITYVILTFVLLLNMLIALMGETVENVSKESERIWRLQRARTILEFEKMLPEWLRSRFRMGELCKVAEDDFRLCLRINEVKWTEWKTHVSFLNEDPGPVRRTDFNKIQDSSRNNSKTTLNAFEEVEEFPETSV
(In general: The patch-clamp technique gives a direct electrical read-out from membranes.)

Where [1] appears, read: Phase 1 current, read-out: hTRPV3 Patch P1 Inwd.
Setting [2] is: Phase 1 current, read-out: hTRPV3 (nM) (Phase 1).
Where [3] appears, read: Phase 1 current, human TRPV3, read-out: hTRPV3 (nM) Phase 1.
Setting [4] is: Phase 2 current, read-out: hTRPV3 Patch P2 Inwd.
Where [5] appears, read: Phase 2 current, read-out: hTRPV3 (nM) (Phase 2).

Each structure is given as a SMILES string. pIC50: −log10 of the molar value. Where two headings read alike, the source gives them in different places.

Turning to `OCc1cc(Oc2ccc(Cl)c(C(F)(F)F)c2)ccc1N1CC[C@H](Oc2ccccn2)C1` [Compound 1-303], the pIC50 under setting [1] was 7.00 to 8.00. The IC50 under setting [2] worked out at 56.3 nM.

For `Cc1ccc(C(O)c2ccc(C3CCN(C(=O)c4ncccc4Cl)C3)c(CO)c2)cc1` (centres unmarked) [Compound 2-6, (3-chloropyridin-2-yl)(3-(4-(hydroxy(p-tolyl)methyl)-2-(hydroxymethyl)phenyl)pyrrolidin-1-yl)methanone], the IC50 under setting [3] is above 3200 nM. For the same molecule, under setting [1], the pIC50 was below 6.00.

`Cc1ccc(O[C@H]2CCN(c3ccc(-c4ccccc4C)nc3CCO)C2)nc1` [Compound 1-200, (S)-2-(3-(3-(5-methylpyridin-2-yloxy)pyrrolidin-1-yl)-6-o-tolylpyridin-2-yl)ethanol]: the pIC50 under setting [1] was 6.00 to 7.00. Under setting [2], the IC50 came out at 709 nM.

For the molecule `CCCc1ccccc1Oc1ccc(N2CC[C@H](Oc3ncccc3Cl)C2)c(CO)c1` [Compound 1-266, (S)-(2-(3-(3-chloropyridin-2-yloxy)pyrrolidin-1-yl)-5-(2-propylphenoxy)phenyl)methanol], the pIC50 under setting [1] is above 8.00. Under setting [2], the IC50 came to 2.65 nM.

As for `N#Cc1ccccc1N1CC[C@@H](Oc2ccc(C(F)(F)F)cn2)C1` [Compound 1-9, (R)-2-(3-(5-(trifluoromethyl)pyridin-2-yloxy)pyrrolidin-1-yl)benzonitrile], the pIC50 under setting [1] was below 6.00.

For `CC(C)c1ccccc1Oc1ccc(C2CCN(C(=O)c3ncccc3Cl)C2)c(C(=O)O)c1` (centres unmarked) [Compound 2-25, 2-(1-(3-chloropicolinoyl)pyrrolidin-3-yl)-5-(2-isopropylphenoxy)benzoic acid], under setting [3], the IC50 was above 3200 nM. Further, under setting [1], the pIC50 is below 6.00.

With `COC(=O)c1cc(-c2ccccc2C(C)C)ccc1C1CCN(C(=O)C(F)(F)F)C1` (centres unmarked) [Compound 2-120], the IC50 under setting [3] is above 3200 nM.

As to `FC(F)(F)c1ccc(O[C@@H]2CCN(c3ccccc3OC3CCCC3)C2)nc1` [Compound 1-36, (R)-2-(1-(2-(cyclopentyloxy)phenyl)pyrrolidin-3-yloxy)-5-(trifluoromethyl)pyridine], under setting [1], the pIC50 is below 6.00.

`Cc1cccc(Oc2ccc(N3CC[C@H](Oc4ncccc4Cl)C3)c(CO)c2)c1` [Compound 1-242, (S)-(2-(3-(3-chloropyridin-2-yloxy)pyrrolidin-1-yl)-5-(m-tolyloxy)phenyl)methanol]: under setting [1], the pIC50 was 7.00 to 8.00. In addition, the IC50 under setting [2] turned out to be 37 nM.

As to `CCc1ccccc1C(O)c1ccc(N2CC[C@H](Nc3ncccc3Cl)C2)c(CCO)c1` (stereo partly drawn) [Compound 1-385, 2-(2-((S)-3-(3-chloropyridin-2-ylamino)pyrrolidin-1-yl)-5-((2-ethylphenyl)(hydroxy)methyl)phenyl)ethanol], under setting [1], the pIC50 is below 6.00. For the same molecule, the IC50 under setting [2] was above 3200 nM.

As to `Cc1ccc(C(=O)c2ccc(C3CCN(C(=O)c4ncccc4Cl)C3)c(CO)c2)cc1` (centres unmarked) [Compound 2-7], under setting [3], the IC50 is above 3200 nM. The pIC50 under setting [1] is below 6.00.

For the molecule `CCc1ccccc1Oc1ccc(C2CCN(C(=O)c3cccc(C)n3)C2)c(C(N)=O)c1` (centres unmarked) [Compound 2-40, 5-(2-ethylphenoxy)-2-(1-(6-methylpicolinoyl)pyrrolidin-3-yl)benzamide], the IC50 under setting [3] came out at 4900 nM. Further, under setting [1], the pIC50 was below 6.00.

Consider `O=C(c1cc(Cl)ccn1)N1CCC(c2ccc(-c3ccccc3C3CC3)cc2CO)C1` (centres unmarked) [Compound 2-60, (4-chloropyridin-2-yl)(3-(2′-cyclopropyl-3-(hydroxymethyl)biphenyl-4-yl)pyrrolidin-1-yl)methanone], for which the IC50 under setting [3] was found to be 26.5 nM. For the same molecule, the pIC50 under setting [1] is 7.00 to 8.00.

In the case of `O=C(c1cccc(Cl)c1)c1ccc(N2CC[C@H](Nc3ccc(F)cn3)C2)c(CCO)c1` [Compound 1-393, (S)-(3-chlorophenyl)(4-(3-(5-fluoropyridin-2-ylamino)pyrrolidin-1-yl)-3-(2-hydroxyethyl)phenyl)methanone], the pIC50 is below 6.00 under setting [1] and below 6.00 under setting [4]. Besides, the IC50 under setting [2] is around 2950 nM and the IC50 under setting [5] was above 3200 nM.

As for `Cc1cccc(C(=O)c2ccc(C3CCN(C(=O)c4ncccc4Cl)C3)c(CO)c2)c1` (single isomer, unassigned) [Compound 2-3], the pIC50 under setting [1] was 7.00 to 8.00.

For the molecule `NC(=O)c1cc(-c2ncc[nH]2)ccc1N1CC[C@@H](Oc2ccc(C(F)(F)F)cn2)C1` [Compound 1-107, (R)-5-(1H-imidazol-2-yl)-2-(3-(5-(trifluoromethyl)pyridin-2-yloxy)pyrrolidin-1-yl)benzamide], the pIC50 was below 6.00 under setting [1] and below 6.00 under setting [4]. For the same molecule, the IC50 is above 1000 nM under setting [2] and above 1000 nM under setting [5].

For `OCc1nc(Oc2ccccc2)ccc1N1CC[C@H](Oc2ccc(C(F)(F)F)cn2)C1` [Compound 1-199, (S)-(6-phenoxy-3-(3-(5-(trifluoromethyl)pyridin-2-yloxy)pyrrolidin-1-yl)pyridin-2-yl)methanol], the IC50 (hTRPV3 Patch P1 Inwd (nM)) was above 1000 nM, the IC50 (hTRPV3 Patch P2 Inwd (nM)) is above 1000 nM, the IC50 (read-out: hTRPV3 (nM) (Phase 1)) was above 3200 nM and the IC50 (read-out: hTRPV3 (nM) (Phase 2)) was above 3200 nM.

For `NCc1ccc(N2CC[C@@H](Oc3ccc(C(F)(F)F)cn3)C2)c(C(N)=O)c1` [Compound 1-45], the pIC50 under setting [1] is below 6.00.

In the case of `COc1ccccc1Oc1ccc(N2CC[C@H](Oc3ccc(F)cn3)C2)c(CO)c1` [Compound 1-336, (S)-(2-(3-(5-fluoropyridin-2-yloxy)pyrrolidin-1-yl)-5-(2-methoxyphenoxy)phenyl)methanol], the pIC50 runs as follows: under setting [1], 6.00 to 7.00; under setting [4], 6.00 to 7.00. The IC50 under setting [2] stood at 329 nM and the IC50 under setting [5] is 384 nM.

As to `CCc1ccccc1-c1ccc(C2CCN(C(=O)C3CCN(C)CC3)C2)c(CO)c1` (centres unmarked) [Compound 2-115], the IC50 under setting [3] was above 3200 nM.

For `CCc1ccccc1Oc1ccc(C2CCN(C(=O)c3ncccc3Cl)C2)c(C(N)=O)c1` (centres unmarked) [Compound 2-37, 2-(1-(3-chloropicolinoyl)pyrrolidin-3-yl)-5-(2-ethylphenoxy)benzamide], under setting [3], the IC50 is around 2190 nM. In addition, the pIC50 under setting [1] is below 6.00.

For `OCc1cc(C(O)c2ccccc2Cl)ccc1N1CC[C@H](Oc2ccccn2)C1` (stereo partly drawn) [Compound 1-338, (2-chlorophenyl)(3-(hydroxymethyl)-4-((S)-3-(pyridin-2-yloxy)pyrrolidin-1-yl)phenyl)methanol], the pIC50 under setting [1] was 6.00 to 7.00. Further, the IC50 under setting [2] came out at 196 nM.

Regarding `COc1ccccc1-c1ccc(N2CC[C@H](Oc3ncccc3F)C2)c(CO)n1` [Compound 1-213, (S)-(3-(3-(3-fluoropyridin-2-yloxy)pyrrolidin-1-yl)-6-(2-methoxyphenyl)pyridin-2-yl)methanol], the pIC50 under setting [1] is below 6.00. The IC50 under setting [2] is 2790 nM.

Consider `CCc1nccnc1-c1ccc(C2CCN(C(=O)c3ccc(F)cn3)C2)c(CO)c1` (centres unmarked) [Compound 2-68, (3-(4-(3-ethylpyrazin-2-yl)-2-(hydroxymethyl)phenyl)pyrrolidin-1-yl)(5-fluoropyridin-2-yl)methanone], for which the IC50 under setting [3] was above 3200 nM. Besides, the pIC50 under setting [1] is below 6.00.

For `O=C(c1ncccc1F)N1CCC(c2ccc(-c3ccccc3C3CC3)cc2CO)C1` (centres unmarked) [Compound 2-74], the IC50 is 90.5 nM under setting [3] and 54.6 nM (Phase 2 current, human TRPV3, read-out: hTRPV3 (nM) Phase 2). Further, the pIC50 under setting [1] was 7.00 to 8.00 and the pIC50 under setting [4] is 7.00 to 8.00.

Turning to `NC(=O)c1cc(Cc2ccccc2)ccc1N1CC[C@H](Oc2ncccc2Cl)C1` [Compound 1-145, (S)-5-benzyl-2-(3-(3-chloropyridin-2-yloxy)pyrrolidin-1-yl)benzamide], the pIC50 is below 6.00 under setting [1] and 6.00 to 7.00 under setting [4]. Also, the IC50 reads like this: under setting [2], 1950 nM; under setting [5], 749 nM.

For the molecule `O=C(c1ccc(F)cc1)c1ccc(N2CC[C@H](Oc3ncccc3F)C2)c(CO)c1` [Compound 1-293, (S)-(4-fluorophenyl)(4-(3-(3-fluoropyridin-2-yloxy)pyrrolidin-1-yl)-3-(hydroxymethyl)phenyl)methanone], the pIC50 runs as follows: under setting [1], 6.00 to 7.00; under setting [4], 6.00 to 7.00. Also, the IC50 was determined as 329 nM under setting [2] and 322 nM under setting [5].

As to `O=C(c1ccncn1)N1CCC(c2ccc(-c3ccccc3C3CC3)cc2CO)C1` (centres unmarked) [Compound 2-110, (3-(2′-cyclopropyl-3-(hydroxymethyl)biphenyl-4-yl)pyrrolidin-1-yl)(pyrimidin-4-yl)methanone], the IC50 under setting [3] is 197 nM. Under setting [1], the pIC50 is 6.00 to 7.00.

Turning to `OCCc1cc(C(O)c2cccc(Cl)c2)ccc1N1CC[C@H](Nc2ccc(F)cn2)C1` (stereo partly drawn) [Compound 1-392, 2-(5-((3-chlorophenyl)(hydroxy)methyl)-2-((S)-3-(5-fluoropyridin-2-ylamino)pyrrolidin-1-yl)phenyl)ethanol], under setting [1], the pIC50 was below 6.00. Further, the IC50 under setting [2] is above 3200 nM.

On to `NC(=O)c1cc(-c2ccccc2)ccc1N1CC[C@@H](Oc2ccccn2)C1` [Compound 1-78, (R)-4-(3-(pyridin-2-yloxy)pyrrolidin-1-yl)biphenyl-3-carboxamide], for which the pIC50 under setting [1] is 6.00 to 7.00 and the pIC50 under setting [4] was 6.00 to 7.00. For the same molecule, the IC50 by setting is: under setting [2], around 835 nM; under setting [5], 402 nM.

For `OCc1cc(C2=CCOCC2)ccc1N1CC[C@H](Oc2ccc(C(F)(F)F)cn2)C1` [Compound 1-280, (S)-(5-(3,6-dihydro-2H-pyran-4-yl)-2-(3-(5-(trifluoromethyl)pyridin-2-yloxy)pyrrolidin-1-yl)phenyl)methanol], under setting [1], the pIC50 was below 6.00. In addition, the IC50 under setting [2] is around 3600 nM.

As to `O=C(c1cc[nH]n1)N1CCC(c2ccc(-c3ccccc3C3CC3)cc2CO)C1` (centres unmarked) [Compound 2-112, (3-(2′-cyclopropyl-3-(hydroxymethyl)biphenyl-4-yl)pyrrolidin-1-yl)(1H-pyrazol-3-yl)methanone], the IC50 under setting [3] is 98 nM. Besides, under setting [1], the pIC50 was 7.00 to 8.00.
